Experimental data: patent US20250163057A1, “DCN-1 MODULATING COMPOUNDS AND METHODS OF USE THEREOF” (Cellarity, Inc., priority 2023, published 2025)
Like-named read-outs stand apart in the source and are kept apart here.

Legend:
DCN1 protein = DCN1 protein (Homo sapiens (Human), UniProt Q96GG9); test: Intact Protein MS Analysis with the RapidFire-TOF System (covalent adduct formation); format: binding; conditions: MS Emax; 400 nM DCN1, 3 hours at room temperature
In short: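 Tag-cleaved human DCN1 (400 nM) expressed in E. coli, in 25 mM Tris-HCl, 200 mM NaCl, 1 mM DTT, was incubated with 11 compound concentrations for 3 h at room temperature and quenched with 0.2% formic acid. Intact-protein Q-TOF MS with deconvolution detected the compound adduct mass.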

[1] = tested on: fetal hemoglobin gene HBG1; test: HBG1 Nanostring Assay in CD34+ HSPC erythroid differentiation culture; format: cell-based, human; conditions: for EC50: Homo sapiens, 240 h, HBG1 induction, Day10 of erythroid differentiation; for Nanostring Ymax obs (%): relative to a control compound (C1)
In short: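 HBG1 counts came from direct nCounter hybridization (67° C, 22 h) of day-10 lysates, normalized to ERCC positive controls and a housekeeping gene, giving EC50 and Ymax versus a reference compound. Compounds in 0.1% DMSO were present from day −2 while cells underwent EPO/SCF/IL-3 erythroid differentiation, with IL-3 dropped at day 7, at 37° C.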

[2] = tested on: Cullin-3 (CUL3) neddylation; test: AlphaLISA assay for Cullin-3 (CUL3) neddylation in TF 1 cells; format: cell-based; conditions: Homo sapiens, TF-1, 3 h, 3 hours treatment
In short: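 Neddylated CUL3 was quantified by AlphaLISA in lysates of TF 1 cells exposed for 3 h to test compound in IMDM without supplements. Percent inhibition set between vehicle and 1 μM DI-1548 positive control; IC50 derived by Hill-equation fitting of dose-response curves.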

[3] = molecular target: DCN1 (DCUND1) protein PONY domain (Homo sapiens (Human), UniProt Q96GG9); test: TR-FRET assay, DCN1 binding with FAM-labeled probe
In short: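 Binding was read as the TR-FRET ratio between a FAM-tagged inhibitor probe and Tb-labeled biotinylated E. coli-expressed DCN1 PONY domain, measured 1, 5 and 24 h after compound addition. The two setups used 5 nM protein/20 nM FAM-probe or 0.31 nM protein/900 nM total probe (100 nM labeled), in TritonX buffer with 200 mM NaCl.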

[4] = 24 hr after treatment with compound, read-out: TR FRET IC50 24 hr
[5] = TR FRET IC50 1 hr (nM), 1 hr after treatment with compound

Chain of DCN1 (DCUND1) protein PONY domain (Q96GG9 60-248): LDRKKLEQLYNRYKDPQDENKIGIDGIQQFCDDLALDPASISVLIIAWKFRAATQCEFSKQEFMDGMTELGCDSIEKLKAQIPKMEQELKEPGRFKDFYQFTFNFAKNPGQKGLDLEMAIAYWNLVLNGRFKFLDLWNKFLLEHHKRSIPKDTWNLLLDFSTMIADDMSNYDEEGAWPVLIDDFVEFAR
Chain of DCN1 protein (Q96GG9 whole entry): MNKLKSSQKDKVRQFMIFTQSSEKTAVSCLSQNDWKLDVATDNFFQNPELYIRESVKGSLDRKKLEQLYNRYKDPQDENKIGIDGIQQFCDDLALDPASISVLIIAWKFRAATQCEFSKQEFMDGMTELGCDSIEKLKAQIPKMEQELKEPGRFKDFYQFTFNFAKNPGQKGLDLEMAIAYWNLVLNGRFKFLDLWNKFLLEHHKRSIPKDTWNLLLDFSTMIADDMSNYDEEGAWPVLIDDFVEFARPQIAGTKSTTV

Row | SMILES | % Adduct Formation (DCN1 protein) | EC50 [1] [µM] | Nanostring Ymax obs (%) [1] | IC50 [2] [µM] | IC50 [3, 4] [nM] | IC50 [3, 5] [nM] | IC50 ([3]; read-out: TR FRET IC50 1 hr, 1 hr after treatment with compound) [nM]
1 | CCN1C(=O)[C@@H](NC(=O)c2cccc(C(F)(F)F)c2)[C@@H](c2ccc(F)cc2)c2c(NC(=O)[C@@H](C)Br)nn(-c3ccccc3)c21 (mixture of isomers) [Compound I-177] | + (MS Emax % adduct formation greater than or equal to 0.0 and less than or equal to 30.0) | > 1 | ++ (Nanostring Ymax greater than 50.0 and less than or equal to 100.0) | 0.1 to 1 |  |  | 
2 | C=C(CN(C)C)C(=O)N(C)Cc1nn(-c2ccccc2)c2c1[C@H](c1ccc(F)cc1)[C@H](NC(=O)c1cccc(C(F)(F)F)c1)C(=O)N2CC (racemic) [Compound I-178] | +++ (MS Emax % adduct formation greater than 80.0 and less than or equal to 100.0) | 0.1 to 1 | ++ (Nanostring Ymax greater than 50.0 and less than or equal to 100.0) | ≤ 0.1 |  |  | 
3 | CCN1C(=O)[C@@H](NC(=O)c2cccc(C(F)(F)F)c2)[C@@H](c2ccc(F)cc2)c2c(Cn3sccc3=O)nn(-c3ccccc3)c21 (racemic) [Compound I-192, rac-N-((4R,5R)-7-ethyl-4-(4-fluorophenyl)-6-oxo-3-((3-oxoisothiazol-2(3H)-yl)methyl)-1-phenyl-4,5,6,7-tetrahydro-1H-pyrazolo[3,4-b]pyridine-5-yl)-3-(trifluoromethyl)benzamide] | ++ (MS Emax % adduct formation greater than 30.0 and less than or equal to 80.0) | 0.1 to 1 | + (Nanostring Ymax greater than or equal to 0.0 and less than or equal to 50.0) | 0.1 to 1 |  |  | 
4 | CCN1C(=O)[C@@H](NC(=O)c2cccc(C(F)(F)F)c2)[C@@H](c2ccc(F)cc2)c2c(CNC(=O)C3=CCC3)nn(-c3ccccc3)c21 (racemic) [Compound I-204] | + (MS Emax % adduct formation greater than or equal to 0.0 and less than or equal to 30.0) | > 1 | + (Nanostring Ymax greater than or equal to 0.0 and less than or equal to 50.0) | 0.1 to 1 |  |  | 
5 | CCN1C(=O)[C@@H](NC(=O)c2cccc(C(F)(F)F)c2)[C@@H](c2ccc(F)cc2)c2c(CN(C)C(=O)CCl)nn(-c3ccccc3)c21 (racemic) [Compound I-227] | ++ (MS Emax % adduct formation greater than 30.0 and less than or equal to 80.0) | 0.1 to 1 | ++ (Nanostring Ymax greater than 50.0 and less than or equal to 100.0) | ≤ 0.1 |  |  | 
6 | C=C(C)C(=O)NCc1nn(-c2ccccc2)c2c1[C@H](c1ccc(F)cc1)[C@H](NC(=O)c1cccc(C(F)(F)F)c1)C(=O)N2CC (racemic) [Compound I-206] | + (MS Emax % adduct formation greater than or equal to 0.0 and less than or equal to 30.0) | > 1 | + (Nanostring Ymax greater than or equal to 0.0 and less than or equal to 50.0) | 0.1 to 1 |  |  | 
7 | CC#CC(=O)NCc1nn(-c2ccccc2)c2c1[C@H](c1ccc(F)cc1)[C@H](NC(=O)c1cccc(C(F)(F)F)c1)C(=O)N2CC (racemic) [Compound I-184] | + (MS Emax % adduct formation greater than or equal to 0.0 and less than or equal to 30.0) |  | ++ (Nanostring Ymax greater than 50.0 and less than or equal to 100.0) | 0.1 to 1 |  |  | 
8 | C#CC(=O)N[C@H](C)c1nn(-c2ccccc2)c2c1[C@H](c1ccc(F)cc1)[C@H](NC(=O)c1cccc(C(F)(F)F)c1)C(=O)N2CC (mixture of isomers) [Compound I-236] | +++ (MS Emax % adduct formation greater than 80.0 and less than or equal to 100.0) | ≤ 0.1 | + (Nanostring Ymax greater than or equal to 0.0 and less than or equal to 50.0) | ≤ 0.1 |  |  | 
9 | CCN1C(=O)[C@@H](NC(=O)c2cccc(C(F)(F)F)c2)[C@@H](c2ccc(F)cc2)c2c(CNC(=O)/C=C/CN3CCC3)nn(-c3ccccc3)c21 (racemic) [Compound I-203] | + (MS Emax % adduct formation greater than or equal to 0.0 and less than or equal to 30.0) | 0.1 to 1 | + (Nanostring Ymax greater than or equal to 0.0 and less than or equal to 50.0) | 0.1 to 1 |  |  | 
10 | C#CC(=O)NCc1nn(-c2ccccc2)c2c1[C@H](c1ccc(F)cc1)[C@H](NC(=O)c1cccc(C(F)(F)F)c1)C(=O)N2CC (racemic) [Compound I-181] | + (MS Emax % adduct formation greater than or equal to 0.0 and less than or equal to 30.0) | ≤ 0.1 | + (Nanostring Ymax greater than or equal to 0.0 and less than or equal to 50.0) | ≤ 0.1 |  |  | 
11 | CCN1C(=O)[C@@H](NC(=O)c2cccc(C(F)(F)F)c2)[C@@H](c2ccc(F)cc2)c2c(CCNC#N)nn(-c3ccccc3)c21 (racemic) [Compound I-10, rac-N-((4R,5R)-3-(2-cyanamidoethyl)-7-ethyl-4-(4-fluorophenyl)-6-oxo-1-phenyl-4,5,6,7-tetrahydro-1H-pyrazolo[3,4-b]pyridin-5-yl)-3-(trifluoromethyl)benzamide] | ++ (MS Emax % adduct formation greater than 30.0 and less than or equal to 80.0) | 0.1 to 1 | ++ (Nanostring Ymax greater than 50.0 and less than or equal to 100.0) |  | ≤ 200 | 200 to 1000 | 
12 | CCN1C(=O)[C@@H](NC(=O)c2cccc(C(F)(F)F)c2)[C@H](c2ccc(F)cc2)c2c(CN(C)C(=O)/C=C/C(=O)OC)nn(-c3ccccc3)c21 (racemic) [Compound I-141, methyl (˜{E})-4-[[(4˜{S},5˜{S})-7-ethyl-4-(4-fluorophenyl)-6-oxo-1-phenyl-5-[[3-(trifluoromethyl)benzoyl]amino]-4,5-dihydropyrazolo[3,4-b]pyridine-3-yl]methyl-methyl-amino]-4-oxo-but-2-enoate] | + (MS Emax % adduct formation greater than or equal to 0.0 and less than or equal to 30.0) | > 1 | ++ (Nanostring Ymax greater than 50.0 and less than or equal to 100.0) |  |  | 200 to 1000 | 
13 | CCN1C(=O)[C@@H](NC(=O)c2cccc(C(F)(F)F)c2)[C@@H](c2ccc(F)cc2)c2c(C(=O)N3CC[C@@H](C#N)C3)nn(-c3ccccc3)c21 (mixture of isomers) [Compound I-60] | + (MS Emax % adduct formation greater than or equal to 0.0 and less than or equal to 30.0) | > 1 | ++ (Nanostring Ymax greater than 50.0 and less than or equal to 100.0) |  | 200 to 1000 |  | ≤ 200
14 | CCN1C(=O)[C@@H](NC(=O)c2cccc(C(F)(F)F)c2)[C@@H](c2ccc(F)cc2)c2c(CCN(C)C#N)nn(-c3ccccc3)c21 (racemic) [Compound I-151, rac-N-((4R,5R)-7-ethyl-4-(4-fluorophenyl)-3-(2-(N-methylcyanamido)ethyl)-6-oxo-1-phenyl-4,5,6,7-tetrahydro-1H-pyrazolo[3,4-b]pyridin-5-yl)-3-(trifluoromethyl)benzamide] | +++ (MS Emax % adduct formation greater than 80.0 and less than or equal to 100.0) | > 1 | ++ (Nanostring Ymax greater than 50.0 and less than or equal to 100.0) |  | ≤ 200 | 200 to 1000 | 
15 | CCN1C(=O)[C@@H](NC(=O)c2cccc(C(F)(F)F)c2)[C@@H](c2ccc(F)cc2)c2c(NC(=O)C3(C#N)CCOCC3)nn(-c3ccccc3)c21 (racemic) [Compound I-66] | + (MS Emax % adduct formation greater than or equal to 0.0 and less than or equal to 30.0) | > 1 | + (Nanostring Ymax greater than or equal to 0.0 and less than or equal to 50.0) |  | 200 to 1000 |  | 
16 | CCN1C(=O)[C@@H](NC(=O)c2cccc(C(F)(F)F)c2)[C@@H](c2ccc(F)cc2)c2c(C/C=C/C(=O)NC)nn(-c3ccccc3)c21 (racemic) [Compound I-38] | + (MS Emax % adduct formation greater than or equal to 0.0 and less than or equal to 30.0) | > 1 | + (Nanostring Ymax greater than or equal to 0.0 and less than or equal to 50.0) |  | 1000 to 3000 | 1000 to 3000 | 
17 | CCN1C(=O)[C@@H](NC(=O)c2cccc(C(F)(F)F)c2)[C@@H](c2ccc(F)cc2)c2c(CNC(=O)C3=C(C(=O)OC)CC3)nn(-c3ccccc3)c21 [Compound I-119] | + (MS Emax % adduct formation greater than or equal to 0.0 and less than or equal to 30.0) | 0.1 to 1 | ++ (Nanostring Ymax greater than 50.0 and less than or equal to 100.0) |  | 200 to 1000 | 200 to 1000 | 
